Assay results published in PubChem BioAssay AID328 (DTP/NCI, 2004).
Several values for one entry are separate records, joined by “and”; a condition that tells them apart may be missing. Equal entries are not always repeated. Inconclusive results and toxic doses are left out.

Tested on: BDF1 mice, P388 leukemia ip, median survival T/C
Test: NCI In Vivo Anticancer Drug Screen. Data for tumor model P388 Leukemia (intraperitoneal) in B6D2F1 (BDF1) mice
Conditions: endpoint: median survival time, higher = longer survival
Procedure, shortened: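 In tumour-bearing mice, survival after compound treatment is set against the vehicle group and given as a quotient.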

[1] = dose: 50.0 mg/kg/injection, schedule: Q01DX009 (ip), vehicle: saline with Tween-80
[2] = dose: 100.0 mg/kg/injection, schedule: Q01DX009 (ip), vehicle: saline with Tween-80
[3] = dose: 200.0 mg/kg/injection, schedule: Q01DX009 (ip), vehicle: saline with Tween-80
[4] = dose: 100.0 mg/kg/injection, schedule: Q04DX003 (ip), vehicle: saline with Tween-80
[5] = dose: 200.0 mg/kg/injection, schedule: Q04DX003 (ip), vehicle: saline with Tween-80
[6] = dose: 400.0 mg/kg/injection, schedule: Q04DX003 (ip), vehicle: saline with Tween-80
[7] = dose: 25.0 mg/kg/injection, schedule: Q01DX009 (ip), vehicle: Klucel (hydroxypropylcellulose) (HPC)
[8] = dose: 50.0 mg/kg/injection, schedule: Q01DX009 (ip), vehicle: Klucel (hydroxypropylcellulose) (HPC)
[9] = dose: 12.5 mg/kg/injection, schedule: Q01DX009 (ip), vehicle: water
[10] = dose: 25.0 mg/kg/injection, schedule: Q01DX009 (ip), vehicle: water
[11] = dose: 50.0 mg/kg/injection, schedule: Q01DX009 (ip), vehicle: water
[12] = dose: 100.0 mg/kg/injection, schedule: Q01DX009 (ip), vehicle: water
[13] = dose: 200.0 mg/kg/injection, schedule: Q01DX009 (ip), vehicle: water
[14] = dose: 50.0 mg/kg/injection, schedule: Q01DX009 (ip), vehicle: saline

OCC1OC(c2ccc(OCc3ccccc3)cc2OCc2ccccc2)C(O)C1O (stereo not drawn)
T/C [1]: 105 % of control
T/C [2]: 92 % of control
T/C [3]: 92 % of control

Cc1cccc2c(N3CCOCC3)c3c(nc12)CCCCC3
T/C [4]: 105 % of control
T/C [5]: 95 % of control
T/C [6]: 100 % of control

Cc1nc2c(sc(=N)n2-c2ccccc2)c(=O)[nH]1
T/C [1]: 114 % of control

CC1(CCC(=O)/C=C/c2ccccc2)CCC/C(=C/c2ccccc2)C1=O (stereo not drawn)
T/C (dose: 12.5 mg/kg/injection, schedule: Q01DX009 (ip), vehicle: Klucel (hydroxypropylcellulose) (HPC)): 110 % of control
T/C [7]: 115 % of control
T/C [8]: 110 % of control
T/C (dose: 75.0 mg/kg/injection, schedule: Q01DX009 (ip), vehicle: Klucel (hydroxypropylcellulose) (HPC)): 100 % of control
T/C (dose: 115.0 mg/kg/injection, schedule: Q01DX009 (ip), vehicle: Klucel (hydroxypropylcellulose) (HPC)): 100 % of control
T/C (dose: 170.0 mg/kg/injection, schedule: Q01DX009 (ip), vehicle: Klucel (hydroxypropylcellulose) (HPC)): 95 % of control

O=C(O)C1CCC2(CCCCC2)CC1
T/C (dose: 6.25 mg/kg/injection, schedule: Q01DX009 (ip), vehicle: water): 106 % of control
T/C [9]: 100 % of control
T/C (dose: 12.5 mg/kg/injection, schedule: Q04DX003 (ip), vehicle: water): 104 % of control
T/C [10]: 113 % of control and 117 % of control
T/C (dose: 25.0 mg/kg/injection, schedule: Q04DX003 (ip), vehicle: water): 94 % of control and 106 % of control and 116 % of control
T/C [11]: 99 % of control and 106 % of control
T/C [12]: 94 % of control and 100 % of control
T/C [13]: 88 % of control

CCCCCCCCCCCCCCCC(=O)OCCCCCCCCCC
T/C (dose: 25.0 mg/kg/injection, schedule: Q04DX003 (ip), vehicle: saline with Tween-80): 100 % of control
T/C (dose: 50.0 mg/kg/injection, schedule: Q04DX003 (ip), vehicle: saline with Tween-80): 100 % of control
T/C [4]: 100 % of control

CCc1c(C(OC)OC)[nH]c(=S)[nH]c1=O
T/C [4]: 91 % of control
T/C [5]: 91 % of control
T/C [6]: 87 % of control

C[C@]12CCC(=O)C=C1CC[C@@H]1[C@@H]2[C@@H](O)C[C@@]2(C)[C@H]1CC[C@]2(O)C(=O)COC(=O)c1ccc([N+](=O)[O-])cc1Cl
T/C [4]: 100 % of control
T/C [5]: 107 % of control
T/C [6]: 103 % of control

COc1ccc2c(c1OC)C(=O)O[C@@H]2[C@H]1c2c(cc3c(c2OC)OCO3)CCN1C
T/C (dose: 31.3 mg/kg/injection, schedule: Q01DX010 (ip), vehicle: saline): 95 % of control
T/C (dose: 62.5 mg/kg/injection, schedule: Q01DX010 (ip), vehicle: saline): 104 % of control
T/C (dose: 125.0 mg/kg/injection, schedule: Q01DX010 (ip), vehicle: saline): 100 % of control
T/C (dose: 250.0 mg/kg/injection, schedule: Q01DX010 (ip), vehicle: saline): 100 % of control

CN(C)CCNc1ccc([N+](=O)[O-])c2sc3ccccc3c(=O)c12
T/C (dose: 7.5 mg/kg/injection, schedule: Q01DX009 (ip), vehicle: Klucel (hydroxypropylcellulose) (HPC)): 107 % of control
T/C (dose: 11.0 mg/kg/injection, schedule: Q01DX009 (ip), vehicle: Klucel (hydroxypropylcellulose) (HPC)): 115 % of control
T/C (dose: 12.5 mg/kg/injection, schedule: Q04DX003 (ip), vehicle: Klucel (hydroxypropylcellulose) (HPC)): 108 % of control
T/C (dose: 17.0 mg/kg/injection, schedule: Q01DX009 (ip), vehicle: Klucel (hydroxypropylcellulose) (HPC)): 108 % of control
T/C [7]: 157 % of control and 166 % of control
T/C (dose: 25.0 mg/kg/injection, schedule: Q04DX003 (ip), vehicle: Klucel (hydroxypropylcellulose) (HPC)): 116 % of control
T/C (dose: 37.0 mg/kg/injection, schedule: Q01DX009 (ip), vehicle: Klucel (hydroxypropylcellulose) (HPC)): 92 % of control and 108 % of control
T/C [8]: 91 % of control
T/C (dose: 50.0 mg/kg/injection, schedule: Q04DX003 (ip), vehicle: Klucel (hydroxypropylcellulose) (HPC)): 162 % of control

CN(C)N/C=N/S(C)(=O)=O
T/C [14]: 101 % of control
T/C (dose: 100.0 mg/kg/injection, schedule: Q01DX009 (ip), vehicle: saline): 101 % of control
T/C (dose: 200.0 mg/kg/injection, schedule: Q01DX009 (ip), vehicle: saline): 109 % of control

COc1ccc(CN)cc1OC
T/C [1]: 100 % of control
T/C [2]: 91 % of control
T/C [3]: 97 % of control

CCCCCCCN1C=CCC(S(=O)(=O)N2CCOCC2)=C1
T/C [1]: 109 % of control
T/C [2]: 99 % of control
T/C [3]: 109 % of control

CC1(C)OC(C)(C)c2c1nnc(-c1cccc([N+](=O)[O-])c1)[n+]2[O-]
T/C (dose: 50.0 mg/kg/injection, schedule: Q01DX005 (ip), vehicle: saline with Tween-80): 88 % of control
T/C (dose: 100.0 mg/kg/injection, schedule: Q01DX005 (ip), vehicle: saline with Tween-80): 93 % of control
T/C (dose: 200.0 mg/kg/injection, schedule: Q01DX005 (ip), vehicle: saline with Tween-80): 104 % of control

C=C1C(=O)OC2CC(C)C3(O)CCC(C)(CC(OC(=O)C(C)C)C12)O3 (stereo not drawn)
T/C (dose: 40.0 mg/kg/injection, schedule: Q01DX009 (ip), vehicle: saline): 100 % of control
T/C [8]: 117 % of control
T/C (dose: 100.0 mg/kg/injection, schedule: Q01DX009 (ip), vehicle: Klucel (hydroxypropylcellulose) (HPC)): 117 % of control and 118 % of control

N#C/C1=C(\N)CCCOCCCOCCCOCCCOCCCOCC1
T/C (dose: 100.0 mg/kg/injection, schedule: Q04DX003 (ip), vehicle: saline): 97 % of control
T/C (dose: 200.0 mg/kg/injection, schedule: Q04DX003 (ip), vehicle: saline): 92 % of control

Cn1ccc2nncn2c1=O
T/C (dose: 100.0 mg/kg/injection, schedule: Q01DX001 (ip), vehicle: saline with Tween-80): 115 % of control
T/C (dose: 200.0 mg/kg/injection, schedule: Q01DX001 (ip), vehicle: saline with Tween-80): 95 % of control
T/C (dose: 400.0 mg/kg/injection, schedule: Q01DX001 (ip), vehicle: saline with Tween-80): 98 % of control

O=C(O)c1c2c(nc3ccccc13)Cc1ccccc1-2
T/C [9]: 96 % of control and 97 % of control
T/C (dose: 25.0 mg/kg/injection, schedule: Q01DX009 (ip), vehicle: saline): 111 % of control
T/C [10]: 88 % of control and 114 % of control
T/C [14]: 110 % of control
T/C [11]: 119 % of control
T/C (dose: 90.0 mg/kg/injection, schedule: Q01DX009 (ip), vehicle: Klucel (hydroxypropylcellulose) (HPC)): 163 % of control
T/C [12]: 173 % of control and 176 % of control
T/C (dose: 133.0 mg/kg/injection, schedule: Q01DX009 (ip), vehicle: Klucel (hydroxypropylcellulose) (HPC)): 186 % of control
T/C (dose: 200.0 mg/kg/injection, schedule: Q01DX009 (ip), vehicle: Klucel (hydroxypropylcellulose) (HPC)): 163 % of control
T/C [13]: 187 % of control

C=Cn1ccnc1C(O)(c1ccccc1)c1ccc(C(C)(C)C)cc1 (stereo not drawn)
T/C [1]: 93 % of control
T/C [2]: 90 % of control
T/C [3]: 93 % of control

COc1ccc(/C(=N/N)C(C)(C)C)cc1
T/C [1]: 88 % of control

O=C1CSC(C23CC4CC(CC(C4)C2)C3)N1c1nccs1 (stereo not drawn)
T/C [1]: 92 % of control
T/C [2]: 90 % of control

O=c1oc2c(CN3CCCC3)c(O)ccc2c2c1CCCC2
T/C (dose: 1.0 mg/kg/injection, schedule: Q01DX009 (ip), vehicle: Klucel (hydroxypropylcellulose) (HPC)): 98 % of control
T/C (dose: 2.0 mg/kg/injection, schedule: Q01DX009 (ip), vehicle: Klucel (hydroxypropylcellulose) (HPC)): 109 % of control
T/C (dose: 4.0 mg/kg/injection, schedule: Q01DX009 (ip), vehicle: Klucel (hydroxypropylcellulose) (HPC)): 104 % of control
T/C (dose: 8.0 mg/kg/injection, schedule: Q01DX009 (ip), vehicle: Klucel (hydroxypropylcellulose) (HPC)): 109 % of control
T/C (dose: 16.0 mg/kg/injection, schedule: Q01DX009 (ip), vehicle: Klucel (hydroxypropylcellulose) (HPC)): 98 % of control
T/C (dose: 32.0 mg/kg/injection, schedule: Q01DX009 (ip), vehicle: Klucel (hydroxypropylcellulose) (HPC)): 99 % of control

Oc1ccc(F)c2cccnc12
T/C (dose: 12.5 mg/kg/injection, schedule: Q01DX010 (ip), vehicle: carboxymethylcellulose (CMC)): 100 % of control
T/C (dose: 25.0 mg/kg/injection, schedule: Q01DX010 (ip), vehicle: carboxymethylcellulose (CMC)): 105 % of control
T/C (dose: 50.0 mg/kg/injection, schedule: Q01DX010 (ip), vehicle: carboxymethylcellulose (CMC)): 100 % of control
